This note sets out measurements from ChEMBL document CHEMBL3352679, “Structure and evaluation of antibacterial and antitubercular properties of new basic and heterocyclic 3-formylrifamycin SV derivatives obtained via 'click chemistry' approach” (Eur J Med Chem, 2014).

Converted amounts (≈) assume the structure as drawn. A value given as a limit tells only on which side of the number the result lay.

For data set [1], the system named is Staphylococcus epidermidis. Description: Antibacterial activity against Staphylococcus epidermidis ATCC 12228 after 18 hrs by serial microdilution method. The conditions noted are these: ATCC 12228, 18 h. The format is functional. (In general: Broth dilution looks for growth in wells or tubes with falling amounts of substance.)
For data set [2], the system named is Salmonella enterica subsp. enterica serovar Abony. Description: Antibacterial activity against Salmonella abony NCTC 6017 after 18 hrs by serial microdilution method. As to conditions: NCTC 6017, 18 h. The format is functional.
The test system of a further data set is Trichophyton rubrum. Description: Antifungal activity against Trichophyton rubrum ATCC 28188 after 18 hrs by serial microdilution method. As to conditions: ATCC 28188, 18 h. The format is functional.
Another data set has as its system Escherichia coli. Put plainly: Antibacterial activity against Escherichia coli ATCC 10538 after 18 hrs by serial microdilution method. The format is functional. As to conditions: ATCC 10538, 18 h.
The test system of another data set is Candida albicans. Put plainly: Antifungal activity against Candida albicans ATCC 10231 after 18 hrs by serial microdilution method. The format is functional. The conditions noted are these: ATCC 10231, 18 h.
In data set [3] the test system is Mycobacterium tuberculosis. Put plainly: Antituberculosis activity against Mycobacterium tuberculosis H37Rv after 7 days by serial two fold dilution method. The format is functional. As to conditions: 168 h.
Data set [4] can be described thus: Octanol-water partition coefficient, log P of the compound. The format is physicochemical.
The test system of data set [5] is Staphylococcus aureus. Put plainly: Antibacterial activity against Staphylococcus aureus ATCC 6538 after 18 hrs by serial microdilution method. The conditions noted are these: ATCC 6538, 18 h. The format is functional.
The subject of data set [6] is Staphylococcus aureus. Description: Antibacterial activity against Staphylococcus aureus ATCC 25923 after 18 hrs by serial microdilution method. The format is functional. The conditions noted are these: ATCC 25923, 18 h.
A further data set deals with Enterococcus faecalis. Description: Antibacterial activity against Enterococcus faecalis ATCC 19433 after 18 hrs by serial microdilution method. The format is functional. The conditions noted are these: ATCC 19433, 18 h.
A short description of data set [7]: Solubility in water at pH 7 and 25 degC by UV-vis spectrophotometry. The format is physicochemical.
The subject of data set [8] is Staphylococcus epidermidis. Put plainly: Antibacterial activity against Staphylococcus epidermidis ATCC 49134 after 18 hrs by serial microdilution method. The format is functional. As to conditions: ATCC 49134, 18 h.
Data set [9] deals with Staphylococcus aureus. Put plainly: Antibacterial activity against Staphylococcus aureus ATCC 4163 after 18 hrs by serial microdilution method. The format is functional. As to conditions: ATCC 4163, 18 h.

Turning to `CO[C@H]1/C=C/O[C@@]2(C)Oc3c(C)c(O)c4c(O)c(c(CNCCCN5CCCC5)c(O)c4c3C2=O)NC(=O)/C(C)=C\C=C\[C@H](C)[C@H](O)[C@@H](C)[C@@H](O)[C@@H](C)[C@H](OC(C)=O)[C@@H]1C`, the MIC in data set [1] is 0.5 µg/mL (≈ 0.597 µM); in data set [2] it was > 1 µg/mL; against Trichophyton rubrum it was > 1 µg/mL; in the data set with Escherichia coli, > 1 µg/mL; against Candida albicans, > 1 µg/mL; in [3] it was 0.5 µg/mL (≈ 0.597 µM). Besides, the minimal inhibitory concentration (MIC) in the data set with Staphylococcus aureus [5] was 0.5 µg/mL (≈ 0.597 µM); in the data set with Staphylococcus aureus [6], 1 µg/mL (≈ 1.19 µM); against Enterococcus faecalis, > 1 µg/mL; in data set [8], 0.25 µg/mL (≈ 0.298 µM); against Staphylococcus aureus [9], 0.5 µg/mL (≈ 0.597 µM). Besides, the log partition coefficient (logP) in data set [4] was found to be 2.04. The molecule further yielded a solubility in [7] of 240 µg/mL (≈ 286 µM).

Regarding `CO[C@H]1/C=C/O[C@@]2(C)Oc3c(C)c(O)c4c(O)c(c(CNC5CCN(Cc6ccccc6)CC5)c(O)c4c3C2=O)NC(=O)/C(C)=C\C=C\[C@H](C)[C@H](O)[C@@H](C)[C@@H](O)[C@@H](C)[C@H](OC(C)=O)[C@@H]1C`, the MIC in [1] is 0.25 µg/mL (≈ 0.278 µM); in data set [2], > 1 µg/mL; in the data set with Trichophyton rubrum, > 1 µg/mL; against Escherichia coli it was > 1 µg/mL; in the data set on Candida albicans, > 1 µg/mL; in data set [3], 0.005 µg/mL (≈ 0.00556 µM). Further, the MIC against Staphylococcus aureus [5] was 0.25 µg/mL (≈ 0.278 µM); with Staphylococcus aureus [6] it was 0.25 µg/mL (≈ 0.278 µM); against Enterococcus faecalis, > 1 µg/mL; in data set [8] it was 0.25 µg/mL (≈ 0.278 µM); against Staphylococcus aureus [9], 0.25 µg/mL (≈ 0.278 µM). The same molecule returned a logP in data set [4] of 3.25. For the same molecule, in [7], the solubility is < 10 µg/mL.

Turning to `CCCCCc1cn(CCCN2Cc3c4c(O)c5c(O)c(C)c6c(c5c3O)C(=O)[C@@](C)(O/C=C/[C@H](OC)[C@@H](C)[C@@H](OC(C)=O)[C@H](C)[C@H](O)[C@H](C)[C@@H](O)[C@@H](C)/C=C/C=C(/C)C2=N4)O6)nn1`, the MIC in data set [1] was > 1 µg/mL; in [2], > 1 µg/mL; against Trichophyton rubrum, > 1 µg/mL; against Escherichia coli it was > 1 µg/mL; against Candida albicans, > 1 µg/mL; in data set [3] it was 1 µg/mL (≈ 1.13 µM). Moreover, the MIC is > 1 µg/mL in the data set with Staphylococcus aureus [5]; > 1 µg/mL against Staphylococcus aureus [6]; > 1 µg/mL in the data set on Enterococcus faecalis; > 1 µg/mL in data set [8]; 1 µg/mL (≈ 1.13 µM) in the data set with Staphylococcus aureus [9]. In addition, the logP in [4] stood at 4.47. Also, in data set [7], the solubility is < 10 µg/mL.

In general, MIC refers to the least concentration at which growth counts as inhibited. High values mean weaker potency, low ones greater potency. Usually logP stands for a log measure of how a compound divides between an organic and an aqueous phase. High values mean higher lipophilicity, low ones lower lipophilicity. One may read the solubility as how much of the substance goes into solution per volume.
